According to patent publication US8598316B2, “Molecules that selectively home to vasculature of pre-malignant dysplastic lesions or malignancies” (priority 2003, dated 2013):

What was measured:
squamous cell carcinomas = assay: In vivo homing of individual phage clones to skin tumors of K14-HPV16 mice; design: species or system mouse; settings: phage-displayed peptide, intravenous injection, tumor-bearing K14-HPV16 mice
Text: (§1) To test homing specificity of the selected peptides, purified phage displaying a single recombinant sequence were intravenously injected into K14HPV16 mice bearing protuberant ear or trunk tumors at 9 to 12 months of age to assess homing to squamous cell carcinomas, or alternatively injected into younger K14HPV16 mice presenting with multifocal dysplasias but no tumors. Both neoplastic tissues and normal control organs were collected and assayed for phage accumulation. Phage displaying the peptide CRAKSKVAC (SEQ ID NO: 9), which appeared with the highest frequency in both the ex vivo and in vivo sequence pools (5 and 15 times, respectively), were 1500-fold enriched in dysplastic skin relative to non-recombinant control phage. However, phage displaying peptide. […] Several other dysplasia-selected clones also differentiated poorly between control tissues and dysplastic skin; seven of the nine dysplasia-selected phage clones appeared to be responsible for the overall enrichment of recombinant phage in control tissues in the final in vivo round of selection as shown in FIG. 1A (right panel), and were not studied further.
(§2) To isolate phage that selectively home to squamous cell carcinomas (SCCs), two rounds of ex vivo panning selections were performed followed by two rounds of in vivo panning in K14-HPV16 mice having tumors histologically confirmed as squamous cell carcinoma grades II-IV (Coussens, supra, 1996). The enrichment rose from 6-fold relative to non-recombinant phage in the second ex vivo round to greater than 70-fold relative to non-recombinant phage in the second in vivo round (the fourth sequential round overall) as shown in FIG. 1B. From 192 sequenced phage clones, fifteen were selected for further analysis based on their frequency (48 from ex vivo round 2, 48 from in vivo round 1, and 96 from in vivo round 2) and their increased prevalence in the in vivo selections. Of these, four clones displaying the following amino acid sequences bound to a K14-HPV16 tumor-derived cell suspension ex vivo: CGKRK (SEQ ID NO: 6), CGTKRKC (SEQ ID NO: 11), CDTAVVEGL (SEQ ID NO: 12) and CDTRL (SEQ ID NO: 7). Phage-displaying the sequence CDTAVVEGL (SEQ ID NO: 12) also were 340-fold enriched in tumors in vivo relative to non-recombinant control phage.

[1] = system: K14-HPV16 tumor-derived cell suspension; assay: Ex vivo phage binding to tumor cell suspension; type: cell-based, mouse; settings: phage-displayed peptide
Experimental: (§3) To isolate peptides specific for dysplastic lesions, two rounds of selection were performed ex vivo followed by one round of selection in vivo. […] Phage selections and validations were performed essentially as described in Laakkonen et al., Nat. Med. 8:751-755 (2002).
as §2

cultured tumor cells = assay: Binding to cultured tumor cells; type: cell-based
[2] = system: CD31-positive endothelial cells; assay: Immunohistochemical localization of intravenously injected phage (anti-T7 / anti-CD31); type: in vivo, mouse; settings: phage-displayed peptide, intravenous; 4 to 6 month-old dysplasia-bearing or 9 to 12 month-old tumor-bearing K14-HPV16 mice
Text: To characterize the nature of the selectivity of the dysplasia- and tumor-homing peptides, K14-HPV16 mice were intravenously injected with cloned phage displaying a particular peptide, and phage localization visualized using histological procedures. Peptide localization was further analyzed with chemically synthesized fluorescein-labeled peptides.
Phage were intravenously injected into 4 to 6 month-old dysplasia-bearing mice with dysplasia-homing phage bearing CSRPRRSEC (SEQ ID NO: 3). In parallel, a set of 9 to 12 month-old tumor-bearing mice were infused with one of the tumor-homing phage CGTKRKC (SEQ ID NO: 11), CGKRK (SEQ ID NO: 6) or CDTRL (SEQ ID NO: 7). Various tissues were collected from each mouse and analyzed by double label immunohistochemical staining using an anti-T7 antibody to detect phage and an anti-CD31 antibody to detect endothelial cells of the vasculature.
(§4) Areas of skin, tumors and various organs were collected and either fixed in formalin, dehydrated through serial alcohols and embedded in paraffin, or directly embedded in OCT medium (Fisher Scientific). K14-HPV16 dysplasia and tumor samples were graded by evaluating hematoxylin & eosin and anti-keratin staining on 5 μm paraffin sections under a light microscope (Coussens et al., supra, 1996). Rat anti-mouse CD31 and rat anti-mouse Meca-32 (BD Pharmingen; San Diego, Calif.) were used for vascular immunostaining on 10 μm frozen sections. Anti-phage staining and biodistribution of fluorescein-labeled peptides were performed essentially as described in Laakkonen et al., supra, 2002.

[3] = system: breast carcinomas in the MMTV-PyMT transgenic mouse model; assay: Fluorescein-labeled peptide homing, MMTV-PyMT transgenic model; type: in vivo; settings: intravenous
Experimental: (§5) To analyze homing selectivity, the K14-HPV16 squamous cell cancer-homing peptides, CGKRK (SEQ ID NO: 6) and CDTRL (SEQ ID NO: 7), were analyzed for the ability to home to endothelium in tumors of different tissue origins and in tumors localized to different anatomical locations. In particular, three subcutaneously implanted tumors and two tumors produced in transgenic animal models were examined for accumulation of fluorescein-labeled peptides following intravenous injection
(§6) RIP1-Tag2 mice were used at 12 weeks of age, at which time all mice had pancreatic islet tumors. MMTV-PyMT mice were 4 to 6 months old and carried palpable mammary tumors. Cells for subcutaneous inoculation to produce transplant tumors were cultured in 10% fetal calf serum (FCS) in Dulbecco's Modified Eagle's Media (DMEM). Tumors were generated by subcutaneously injecting 10^6 cells into the chest skin of FVB/n (PDSC5) or Balb/c nude (MDA-MB-435 and C8161) mice. Mice bearing subcutaneous transplant tumors had tumors with an approximate diameter of 1 centimeter. PDSC5 tumors and MDA-MB-435 xenografts reached this size about 9 weeks post-injection while C8161 xenografts reached a size of 1 cm about three weeks post-injection.

[4] = system: PDSC5, a K14-HPV16 tumor-derived cell line; assay: Fluorescein-labeled peptide homing, PDSC5 subcutaneous transplant tumor; type: in vivo, mouse; settings: intravenous, subcutaneous tumor in FVB/n mice
Experimental: as §5, §6

[5] = system: MDA-MB-435 human breast cancer line; assay: Fluorescein-labeled peptide homing, MDA-MB-435 xenograft; type: in vivo, mouse; settings: for homing to MDA-MB-435 xenograft: intravenous, subcutaneous tumor in Balb/c nude mice
Experimental: as §5, §6

[6] = system: angiogenic islets (dysplasias) or tumors in the RIP-Tag transgenic mouse model of pancreatic islet cell carcinoma; assay: Fluorescein-labeled peptide homing, RIP-Tag transgenic model; type: in vivo; settings: intravenous
Experimental: as §5, §6

[7] = system: dysplastic skin vasculature and tumor vasculature; assay: Localization of intravenously injected fluorescein-labeled peptides in K14-HPV16 mice (Meca-32 staining); type: in vivo, mouse; settings: intravenous, 10 minutes; for peptide localization in dysplastic skin of tumor-bearing mice / peptide localization in squamous tumor: tumor-bearing K14-HPV16 mice; for peptide localization in dysplastic skin of non-tumor-bearing mice: younger dysplasia-bearing K14-HPV16 mice
Experimental: Both younger dysplasia-bearing and older tumor-bearing K14-HPV16 mice were injected with fluorescein-labeled peptides. After 10 minutes, both normal and neoplastic tissues were collected; tissue sections were prepared and stained with antibodies to both CD31 and a second endothelial marker, the cell-surface antigen Meca-32. Similar results were obtained with the two endothelial marker antibodies; the data for Meca-32 are shown in FIG. 3, in which localization of intravenously infused peptides and antibody was visualized by two-color fluorescence microscopy.
as §4

[8] = system: C8161 human melanoma line; assay: Fluorescein-labeled peptide homing, C8161 xenograft; type: in vivo, mouse; settings: intravenous, subcutaneous tumor in Balb/c nude mice
Experimental: as §5, §6

[9] = system: normal skin and control tissues; assay: In vivo phage accumulation in normal skin, hyperplastic skin and control organs; design: species or system mouse; settings: phage-displayed peptide; for homing to normal skin of FVB/n mice: wild-type FVB/n mice; for accumulation in control tissues / normal organs: intravenous injection
Text: as §1

dysplastic skin lesions = assay: In vivo homing of individual phage clones to dysplastic skin of K14HPV16 mice; design: species or system mouse; settings: phage-displayed peptide, intravenous injection
Experimental: as §3, §1

[10] = system: hyperplastic skin of 1 to 2 month-old K14-HPV16 mice; assay: Ex vivo phage binding to hyperplastic skin; type: cell-based, mouse; settings: phage-displayed peptide
mitochondrial membranes = settings: at a concentration of 10 μM; cited from earlier work

Row | Substance | binding to K14-HPV16 tumor-derived cell suspension ex vivo [1] | homing to tumor (squamous cell carcinomas) | tissue localization of phage by immunohistochemical staining [2] | homing to angiogenic islets or tumors of RIP-Tag mice [6] | peptide localization in dysplastic skin of tumor-bearing mice [7] | peptide localization in squamous tumor [7] | peptide localization in dysplastic skin of non-tumor-bearing mice [7] | accumulation in control tissues / normal organs [9] | homing to dysplastic skin (dysplastic skin lesions) | also measured
1 | CDTAVVEGL (phage-displayed) | bound | – | – | – | – | – | – | – | – | enrichment in tumors in vivo relative to non-recombinant control phage (squamous cell carcinomas): 340 fold
2 | CDTRL [tumor-homing peptide] | bound | variable preference for squamous cell carcinomas and dysplastic lesions | localized to large, dilated vessels throughout the dysplastic and hyperplastic skin | neither peptide CGKRK (SEQ ID NO: 6) nor CDTRL (SEQ ID NO: 7) homed to angiogenic islets (dysplasias) or tumors | at lower levels | primarily detected in tumor vasculature | not detected in the dysplastic skin of younger non-tumor bearing mice | – | – | binding to cultured tumor cells (cultured tumor cells): bind a range of cultured tumor cells; homing to MMTV-PyMT breast carcinomas [3]: did home to breast carcinomas; homing to PDSC5 transplant tumor [4]: accumulated only in the melanoma xenografts; homing to MDA-MB-435 xenograft [5]: accumulated only in the melanoma xenografts; homing to C8161 melanoma xenograft [8]: accumulated only in the melanoma xenografts; affinity for hyperplastic skin ([9]; in vivo, K14-HPV16 mice): little affinity for hyperplastic skin; homing to normal skin of FVB/n mice ([9]; in vivo): no significant homing to normal skin
3 | CGKRK [tumor-homing peptide] | bound | marked preference for the tumor | accumulated in tumor tissue | neither peptide CGKRK (SEQ ID NO: 6) nor CDTRL (SEQ ID NO: 7) homed to angiogenic islets (dysplasias) or tumors | at lower levels | primarily detected in tumor vasculature | not detected in the dysplastic skin of younger non-tumor bearing mice | very low levels | Some homing to dysplastic lesions | binding to cultured tumor cells (cultured tumor cells): bind a range of cultured tumor cells; enrichment in tumors in vivo relative to non-recombinant control phage (squamous cell carcinomas): 80 to 1,000 fold; homing to MMTV-PyMT breast carcinomas [3]: did home to breast carcinomas; homing to PDSC5 transplant tumor [4]: homed to cells in each of the three transplant tumors; subcellular localization in vascular cells ([5]; FIG. 4D, endothelial cells (CD31, Meca-32)): localized in the cytoplasm and nuclei of vascular cells; homing to MDA-MB-435 xenograft [5]: homed to cells in each of the three transplant tumors; homing to C8161 melanoma xenograft [8]: homed to cells in each of the three transplant tumors
4 | CGTKRKC (phage-displayed) | bound | – | detected to a lesser extent in dysplastic skin of tumor-bearing mice | – | – | – | – | – | – | –
5 | CNRRTKAGC (phage-displayed) | – | – | – | – | – | – | – | did not appreciably home to normal organs | highly selective for dysplastic skin | –
6 | CRAKSKVAC (phage-displayed) | – | – | – | – | – | – | – | accumulated with similar frequency in normal skin, kidney and brain | – | enrichment in dysplastic skin relative to non-recombinant control phage (dysplastic skin lesions): 1500 fold
7 | CSRPRRSEC [dysplasia-homing peptide from CX7C library] | – | little homing to the tumor | accumulated in dysplastic skin | does not recognize pre-malignant lesions | co-localized with Meca-32 in dysplastic skin vasculature | not detected within the squamous tumor | co-localized with Meca-32 in dysplastic skin vasculature | did not significantly accumulate in control tissues | effectively homed to dysplastic chest skin and dysplastic ear skin | binding to hyperplastic skin ex vivo [10]: did not bind to hyperplastic skin; homing to normal skin of FVB/n mice ([9]; in vivo): did not home to normal skin of FVB/n mice; enrichment in dysplastic skin relative to non-recombinant control phage (dysplastic skin lesions): ~350 fold; homing to dysplastic skin (dysplastic skin lesions; listed as CSRPRRSRC): maintained the ability to home
8 | D(KLAKLAK)2 | – | – | – | – | – | – | – | – | – | mitochondrial swelling (mitochondrial membranes): marked mitochondrial swelling
